Assay results: patent US9108947B2, “Inhibitors of the Renal Outer Medullary Potassium channel” (Merck Sharp & Dohme Corp., priority 2011, dated 2015)

Assays:
hROMK (hKir1.1) = hROMK (hKir1.1) (Homo sapiens (Human), UniProt P48048); experiment: Thallium Flux Assay (ROMK channel functional thallium flux, FLIPR-Tetra); format: cell-based; conditions: HEK293 cells stably expressing hROMK (hKir1.1); 30 min compound incubation
Description: (§1) Several assays may be used to measure functional inhibition of the ROMK channel by compounds of the instant invention. One assay that can be used is an electrophysiology assay that measures the electrical current that is generated as potassium permeates through the channel. Another ROMK functional assay makes use of the ability of thallium to permeate through open ROMK channels and increase the fluorescence of a dye previously loaded into the cells. Under control conditions, cells loaded with dye and exposed to thallium-containing medium display a time-dependent increase in fluorescence, the rate of which depends on number of functional channels. When cells are incubated in the presence of a channel inhibitor, the increase in fluorescence is attenuated in a concentration-dependent manner, and IC50 values of inhibition by compounds can be accurately determined. This assay has been established with cell lines expressing either human, or rat ROMK channels, and operates in 384-well format.
HEK293 cells stably expressing hROMK (hKir1.1) were grown at 37° C. in a 10% CO2 humidified incubator in complete growth media: Dulbecco's Modified Eagle Medium supplemented with non-essential amino acids, Penicillin/Streptomycin/Glutamine, G418 and FBS. At >80% confluency, the media was aspirated from the flask and the sample was rinsed with 10 ml Calcium/Magnesium-free PBS. […] To dislodge the cell, the side of the flask was gently banged with a hand. The cells were triturated completely and then transferred to 25 ml complete media. The sample was then centrifuged at 1,500 rpm for 6 minutes, followed by resuspension in complete growth media and then cell concentration was determined. […] Under ideal growth conditions and appropriate tissue culture practices, this cell line is stable for 40-45 passages.
• FluxOR™ Reagent (Component A) • FluxOR™ Assay Buffer (Component B)—10× Concentrate • PowerLoad™ Concentrate (Component C)—100× Concentrate • Probenecid (Component D) Lyophilized sample is kept at −20° C. Water soluble, 100× after solubilization in 1 ml water. […] Store at 4° C. • Thallium sulfate (Tl2SO4) Concentrate (Component G)—50 mM in water. […] Can be stored at room temperature • Stimulant Buffer (prepared at 5× final concentration in 1× FluxOR™Chloride-Free Buffer): 7.5 mM Thallium sulfate and 0.75 mM Potassium sulfate (to give a final assay concentration of 3 mM Thallium 0.3 mM Potassium). Store at 4° C. when not in use. If kept sterile, this solution is good for months. Assay Protocol—
The ROMK channel functional thallium flux assay is performed in 384 wells, using the FLIPR-Tetra instrument. HEK-hKir1.1 cells are seeded in Poly-D-Lysine microplates and kept in a 37° C.-10% CO2 incubator overnight. On the day of the experiment, the growth media is replaced with the FluxOR™ reagent loading buffer and incubated, protected from light, at ambient temperature (23-25° C.) for 90 min. The loading buffer is replaced with assay buffer±test compound followed by 30 min incubation at ambient temperature, where the Thallium/Potassium stimulant is added to the microplate.
• 1. Seed HEK-hKir1.1 cells (50 μl at 20,000 cells/well) in 384-well PDL coated Microplates • 2. Allow cells to adhere overnight in humidified 37° C./10% CO2 incubator • 3. Completely remove cell growth media from microplate and replace with 25 μl loading buffer • 4. Incubate Microplate at room temperature, protected form light, for 90 min • 5. Remove loading buffer and replace with 25 μl 1× Assay Buffer±test compound. • 6. Incubate microplate at room temperature, protected form light, for 30 min • 7. […] Excitation=400 nm, Emission=460 & 580 nm. Collect data for 10 min. Data Calculation—
The fluorescence intensity of wells containing 3 μM of a standard control ROMK inhibitor of the present invention is used to define the ROMK-sensitive component of thallium flux. Fluorescence in the presence of test compounds is normalized to control values to provide % fluorescence change.

Kir1.1 (ROMK1) = Kir1.1 (ROMK1) (Homo sapiens (Human), UniProt P48048); experiment: Electrophysiology Assay (whole cell voltage clamp, IonWorks Quattro); format: cell-based; conditions: Chinese hamster ovary cells stably expressing Kir1.1; block during voltage step to 0 mV; 6 minutes compound incubation; read-out: EP Assay IC50
Description: as §1
Chinese hamster ovary cells stably expressing Kir1.1 channels were maintained in T-75 flasks in cell culture media in a humidified 10% CO2 incubator at 37° C. Prior to an experiment, Kir1.1 expression was induced by overnight incubation with 1 mM sodium butyrate. […] After centrifugation, the cell pellet was resuspended in approximately 4.0 ml of bath solution and placed in the IonWorks® instrument. The intracellular solution consisted of (in mM): 80 K gluconate, 40 KCl, 20 KF, 3.2 MgCl2, 3 EGTA, 5 Hepes, pH 7.4. Electrical access to the cytoplasm was achieved by perforation in 0.13 mg/ml amphotericin B for 4 minutes.
Voltage protocols and current recordings were performed using the IonWorks® HT software/hardware system. Currents were sampled at 1 kHz. No correction for liquid junction potentials was used. The test pulse, consisting of a 100 ms step to 0 mV from a holding potential of −70 mV, followed by a 100 ms voltage ramp from −70 mV to +70 mV, was applied before and after a 6 minutes compound incubation period. Test compounds were prepared by diluting DMSO stock solutions into the bath solution at 3× the final concentration and placed in the instrument in 96-well polypropylene plates. Current amplitudes were measured using the IonWorks® software.

Kir1.1 (ROMK1), sequence (P48048 whole entry, species assumed): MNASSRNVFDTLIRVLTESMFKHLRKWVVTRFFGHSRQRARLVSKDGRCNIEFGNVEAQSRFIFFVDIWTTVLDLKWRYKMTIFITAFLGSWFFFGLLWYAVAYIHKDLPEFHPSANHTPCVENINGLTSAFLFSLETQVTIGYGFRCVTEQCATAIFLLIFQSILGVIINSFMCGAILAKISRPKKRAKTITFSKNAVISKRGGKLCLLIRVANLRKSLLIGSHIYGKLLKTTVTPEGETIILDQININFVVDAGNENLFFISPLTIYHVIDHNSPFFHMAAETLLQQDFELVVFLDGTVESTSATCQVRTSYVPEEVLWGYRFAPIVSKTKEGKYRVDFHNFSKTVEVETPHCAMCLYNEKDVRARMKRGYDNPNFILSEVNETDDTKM
hROMK (hKir1.1), sequence (P48048 whole entry): as the sequence (P48048 whole entry, species assumed) above

Row | Compound | IC50 (hROMK (hKir1.1)) [nM] | IC50 (Kir1.1 (ROMK1)) [nM]
1 | Cc1c([C@@H](O)CN2CCCC2CNCC(O)c2ccc(C#N)cn2)ccc2c1COC2=O (single isomer, unassigned) [Example 9A] | 188 | 321
2 | Cc1c([C@@H](O)CN2CCCC2CNCC(O)c2ccc(C#N)cn2)ccc2c1COC2=O (single isomer, unassigned) [Example 9B] | 290 | 254
3 | Cc1c([C@@H](O)CNC2C[C@H]3C[C@@H]2N(C[C@H](O)c2ccc4c(c2C)COC4=O)C3)ccc2c1COC2=O (single isomer, unassigned) [Example 17A] | 500 | 1420
4 | Cc1c([C@@H](O)CNC2C[C@H]3C[C@@H]2N(C[C@H](O)c2ccc4c(c2C)COC4=O)C3)ccc2c1COC2=O (single isomer, unassigned) [Example 17B] | 581 | –
5 | Cc1c(C(O)CN2CC[C@@H](NC[C@H](O)c3ccc4c(c3C)COC4=O)C2)ccc2c1COC2=O (stereo in doubt) [Example 1, 5-{(1R)-1-Hydroxy-2-[(3R)-3-{[(2R)-2-hydroxy-2-(4-methyl-1-oxo-1,3-dihydro-2-benzofuran-5-yl)ethyl]amino}pyrrolidin-1-yl]ethyl}-4-methyl-2-benzofuran-1(3H)-one] | 414 | 595
6 | Cc1c([C@@H](O)CNC2(C3CCN(C[C@H](O)c4ccc5c(c4C)COC5=O)C3)CCC2)ccc2c1COC2=O (stereo partly drawn) [Example 2, 5-{(1R)-1-Hydroxy-2-[3-(1-{[(2R)-2-hydroxy-2-(4-methyl-1-oxo-1,3-dihydro-2-benzofuran-5-yl)ethyl]amino}cyclobutyl)pyrrolidin-1-yl]ethyl}-4-methyl-2-benzofuran-1(3H)-one] | 172 | 420
7 | Cc1c([C@@H](O)CNCC2CCCN2C[C@H](O)c2ccc3c(c2C)COC3=O)ccc2c1COC2=O (stereo partly drawn) [Example 3, 5-{(1R)-1-Hydroxy-2-[2-({[(2R)-2-hydroxy-2-(4-methyl-1-oxo-1,3-dihydro-2-benzofuran-5-yl)ethyl]amino}methyl)pyrrolidin-1-yl]ethyl}-4-methyl-2-benzofuran-1(3H)-one] | 176 | 510
8 | Cc1c(C(CO)NCC2CCCN2C[C@H](O)c2ccc3c(c2C)COC3=O)ccc2c1COC2=O (stereo partly drawn) [Example 4, 5-{(1R)-1-Hydroxy-2-[2-({[2-hydroxy-1-(4-methyl-1-oxo-1,3-dihydro-2-benzofuran-5-yl)ethyl]amino}methyl)pyrrolidin-1-yl]ethyl}-4-methyl-2-benzofuran-1(3H)-one] | 523 | 278
9 | Cc1c([C@@H](O)CNCC2CCCCN2C[C@H](O)c2ccc3c(c2C)COC3=O)ccc2c1COC2=O (stereo partly drawn) [Example 5, 5-{(1R)-1-Hydroxy-2-[2-({[(2R)-2-hydroxy-2-(4-methyl-1-oxo-1,3-dihydro-2-benzofuran-5-yl)ethyl]amino}methyl)piperidin-1-yl]ethyl}-4-methyl-2-benzofuran-1(3H)-one] | 82 | –
10 | Cc1c(C(CO)NCC2CCCCN2C[C@H](O)c2ccc3c(c2C)COC3=O)ccc2c1COC2=O (stereo partly drawn) [Example 6, 5-{(1R)-1-Hydroxy-2-[2-({[2-hydroxy-1-(4-methyl-1-oxo-1,3-dihydro-2-benzofuran-5-yl)ethyl]amino}methyl)piperidin-1-yl]ethyl}-4-methyl-2-benzofuran-1(3H)-one] | 143 | 446
11 | Cc1c([C@@H](O)CNCC2(C)CCN(C[C@H](O)c3ccc4c(c3C)COC4=O)C2)ccc2c1COC2=O (stereo partly drawn) [Example 7, 5-{(1R)-1-Hydroxy-2-[3-({[(2R)-2-hydroxy-2-(4-methyl-1-oxo-1,3-dihydro-2-benzofuran-5-yl)ethyl]amino}methyl)-3-methylpyrrolidin-1-yl]ethyl}-4-methyl-2-benzofuran-1(3H)-one] | 277 | –
12 | Cc1c([C@@H](O)CNCC2(C)CCCN(C[C@H](O)c3ccc4c(c3C)COC4=O)C2)ccc2c1COC2=O (stereo partly drawn) [Example 8, 5-{(1R)-1-Hydroxy-2-[3-({[(2R)-2-hydroxy-2-(4-methyl-1-oxo-1,3-dihydro-2-benzofuran-5-yl)ethyl]amino}methyl)-3-methylpiperidin-1-yl]ethyl}-4-methyl-2-benzofuran-1(3H)-one] | 847 | –
13 | Cc1c([C@@H](O)CN2CC[C@@H](NCC(O)c3ccc(C#N)cn3)C2)ccc2c1COC2=O (stereo partly drawn) [Example 10, 6-(1-Hydroxy-2-((R)-1-((R)-2-hydroxy-2-(4-methyl-1-oxo-1,3-dihydroisobenzofuran-5-yl)ethyl)pyrrolidin-3-ylamino)ethyl)nicotinonitrile] | 504 | 2060
14 | Cc1c([C@@H](O)CN2CC[C@H](NCC(O)c3ccc(C#N)cn3)C2)ccc2c1COC2=O (stereo partly drawn) [Example 11, 6-(1-Hydroxy-2-((S)-1-((R)-2-hydroxy-2-(4-methyl-1-oxo-1,3-dihydroisobenzofuran-5-yl)ethyl)pyrrolidin-3-ylamino)ethyl)nicotinonitrile] | 648 | –
15 | Cc1c([C@@H](O)CN[C@@H]2CCN(CC(O)c3ccc(C#N)cn3)C2)ccc2c1COC2=O (stereo partly drawn) [Example 12, 6-(1-Hydroxy-2-((R)-3-((R)-2-hydroxy-2-(4-methyl-1-oxo-1,3-dihydroisobenzofuran-5-yl)ethylamino)pyrrolidin-1-yl)ethyl)nicotinonitrile] | 542 | 1370
16 | Cc1c([C@@H](O)CN2CCCCC2CNCC(O)c2ccc(C#N)cn2)ccc2c1COC2=O (stereo partly drawn) [Example 13, 6-{1-Hydroxy-2-[({1-[(2R)-2-hydroxy-2-(4-methyl-1-oxo-1,3-dihydro-2-benzofuran-5-yl)ethyl]piperidin-2-yl}methyl)amino]ethyl}pyridine-3-carbonitrile] | 162 | 269
17 | Cc1c([C@@H](O)CN2CC(CNS(=O)(=O)Cc3ccc(C#N)cc3)C2)ccc2c1COC2=O [Example 16, (R)-1-(4-Cyanophenyl)-N-((1-(2-hydroxy-2-(4-methyl-1-oxo-1,3-dihydroisobenzofuran-5-yl)ethyl)azetidin-3-yl)methyl)methanesulfonamide] | 1040 | –
18 | Cc1c([C@@H](O)CN2CCC(C3(Nc4nccn5cnnc45)CCC3)C2)ccc2c1COC2=O (stereo partly drawn) [Example 23, 5-((1R)-2-(3-(1-([1,2,4]Triazolo[4,3-a]pyrazin-8-ylamino)cyclobutyl)pyrrolidin-1-yl)-1-hydroxyethyl)-4-methylisobenzofuran-1(3H)-one] | 401 | –
19 | Cc1c([C@@H](O)CN2CCC(CNc3nccn4cnnc34)(c3ccccc3)C2)ccc2c1COC2=O (stereo partly drawn) [Example 24, 5-((1R)-2-(3-(([1,2,4]Triazolo[4,3-a]pyrazin-8-ylamino)methyl)-3-phenylpyrrolidin-1-yl)-1-hydroxyethyl)-4-methylisobenzofuran-1(3H)-one] | 893 | –
